Experimental data taken from US9636418B2 (priority 2013, dated 2017).
Where “and” joins values, the source holds several entries; their conditions need not be identical. Equal entries are not always repeated.

Experiments:
Experiment in all cases: cell-based
[1] = molecular target: hNav1.5 (Homo sapiens, UniProt Q14524); settings: IonWorks Quattro; read-out: IC50 Nav1.5
[2] = molecular target: hNav1.4 (Homo sapiens, UniProt P35499); settings: for IC50: IonWorks Quattro, read-out: IC50 Nav1.4
[3] = molecular target: hNav1.3 (Homo sapiens, UniProt Q9NY46); settings: IonWorks Quattro; read-out: IC50 Nav1.3
[4] = molecular target: hNav1.7 (Homo sapiens, UniProt Q15858); settings: IonWorks Quattro; read-out: IC50 Nav1.7

Sequence of hNav1.5 (Q14524 whole entry): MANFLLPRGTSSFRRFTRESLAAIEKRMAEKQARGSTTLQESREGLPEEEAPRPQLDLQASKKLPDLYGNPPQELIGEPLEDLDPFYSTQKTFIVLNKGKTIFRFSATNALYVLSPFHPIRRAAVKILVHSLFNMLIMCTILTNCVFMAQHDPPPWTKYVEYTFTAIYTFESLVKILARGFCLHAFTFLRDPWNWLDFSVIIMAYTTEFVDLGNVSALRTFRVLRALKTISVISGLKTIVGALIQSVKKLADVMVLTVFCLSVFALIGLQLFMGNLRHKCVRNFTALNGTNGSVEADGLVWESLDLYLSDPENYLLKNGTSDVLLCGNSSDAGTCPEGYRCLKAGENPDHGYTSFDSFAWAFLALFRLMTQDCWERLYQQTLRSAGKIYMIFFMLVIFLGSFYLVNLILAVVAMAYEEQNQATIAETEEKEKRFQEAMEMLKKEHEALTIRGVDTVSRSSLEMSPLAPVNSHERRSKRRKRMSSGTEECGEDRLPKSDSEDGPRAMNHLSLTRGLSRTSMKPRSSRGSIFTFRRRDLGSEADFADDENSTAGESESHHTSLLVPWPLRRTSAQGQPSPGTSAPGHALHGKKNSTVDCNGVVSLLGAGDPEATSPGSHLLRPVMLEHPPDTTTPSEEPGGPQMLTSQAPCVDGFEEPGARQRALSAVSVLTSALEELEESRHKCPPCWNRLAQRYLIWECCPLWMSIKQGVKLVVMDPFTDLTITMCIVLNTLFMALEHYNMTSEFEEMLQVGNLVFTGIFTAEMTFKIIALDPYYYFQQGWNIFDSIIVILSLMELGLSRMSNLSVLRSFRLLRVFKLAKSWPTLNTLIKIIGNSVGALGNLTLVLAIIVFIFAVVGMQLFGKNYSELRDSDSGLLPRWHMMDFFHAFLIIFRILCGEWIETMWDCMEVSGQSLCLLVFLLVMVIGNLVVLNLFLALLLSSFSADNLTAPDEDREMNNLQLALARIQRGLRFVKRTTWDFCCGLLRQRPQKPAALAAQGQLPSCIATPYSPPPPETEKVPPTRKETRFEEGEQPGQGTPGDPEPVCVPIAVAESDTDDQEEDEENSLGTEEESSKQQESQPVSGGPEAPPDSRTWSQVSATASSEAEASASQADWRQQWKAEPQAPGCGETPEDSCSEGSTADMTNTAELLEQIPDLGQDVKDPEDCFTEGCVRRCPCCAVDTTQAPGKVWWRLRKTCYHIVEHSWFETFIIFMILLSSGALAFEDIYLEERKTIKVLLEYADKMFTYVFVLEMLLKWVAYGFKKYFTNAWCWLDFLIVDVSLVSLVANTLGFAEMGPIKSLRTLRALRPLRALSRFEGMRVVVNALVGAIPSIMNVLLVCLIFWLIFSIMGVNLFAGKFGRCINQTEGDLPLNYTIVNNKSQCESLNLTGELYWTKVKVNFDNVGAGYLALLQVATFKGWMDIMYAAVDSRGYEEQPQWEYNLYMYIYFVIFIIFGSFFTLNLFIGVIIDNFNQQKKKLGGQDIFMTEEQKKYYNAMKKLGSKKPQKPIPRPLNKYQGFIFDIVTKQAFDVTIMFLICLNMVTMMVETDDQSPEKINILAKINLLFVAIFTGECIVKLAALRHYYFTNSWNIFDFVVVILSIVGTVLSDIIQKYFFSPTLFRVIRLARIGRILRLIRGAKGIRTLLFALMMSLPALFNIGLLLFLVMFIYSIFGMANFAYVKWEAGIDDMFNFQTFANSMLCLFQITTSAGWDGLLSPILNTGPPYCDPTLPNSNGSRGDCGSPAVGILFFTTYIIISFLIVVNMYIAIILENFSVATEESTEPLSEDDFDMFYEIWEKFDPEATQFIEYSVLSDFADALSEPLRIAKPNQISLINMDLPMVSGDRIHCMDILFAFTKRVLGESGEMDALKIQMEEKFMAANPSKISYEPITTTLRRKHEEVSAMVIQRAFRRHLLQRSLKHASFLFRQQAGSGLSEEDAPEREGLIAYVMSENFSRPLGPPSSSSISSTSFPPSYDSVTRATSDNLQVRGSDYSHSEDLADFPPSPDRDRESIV
Sequence of hNav1.4 (P35499 whole entry): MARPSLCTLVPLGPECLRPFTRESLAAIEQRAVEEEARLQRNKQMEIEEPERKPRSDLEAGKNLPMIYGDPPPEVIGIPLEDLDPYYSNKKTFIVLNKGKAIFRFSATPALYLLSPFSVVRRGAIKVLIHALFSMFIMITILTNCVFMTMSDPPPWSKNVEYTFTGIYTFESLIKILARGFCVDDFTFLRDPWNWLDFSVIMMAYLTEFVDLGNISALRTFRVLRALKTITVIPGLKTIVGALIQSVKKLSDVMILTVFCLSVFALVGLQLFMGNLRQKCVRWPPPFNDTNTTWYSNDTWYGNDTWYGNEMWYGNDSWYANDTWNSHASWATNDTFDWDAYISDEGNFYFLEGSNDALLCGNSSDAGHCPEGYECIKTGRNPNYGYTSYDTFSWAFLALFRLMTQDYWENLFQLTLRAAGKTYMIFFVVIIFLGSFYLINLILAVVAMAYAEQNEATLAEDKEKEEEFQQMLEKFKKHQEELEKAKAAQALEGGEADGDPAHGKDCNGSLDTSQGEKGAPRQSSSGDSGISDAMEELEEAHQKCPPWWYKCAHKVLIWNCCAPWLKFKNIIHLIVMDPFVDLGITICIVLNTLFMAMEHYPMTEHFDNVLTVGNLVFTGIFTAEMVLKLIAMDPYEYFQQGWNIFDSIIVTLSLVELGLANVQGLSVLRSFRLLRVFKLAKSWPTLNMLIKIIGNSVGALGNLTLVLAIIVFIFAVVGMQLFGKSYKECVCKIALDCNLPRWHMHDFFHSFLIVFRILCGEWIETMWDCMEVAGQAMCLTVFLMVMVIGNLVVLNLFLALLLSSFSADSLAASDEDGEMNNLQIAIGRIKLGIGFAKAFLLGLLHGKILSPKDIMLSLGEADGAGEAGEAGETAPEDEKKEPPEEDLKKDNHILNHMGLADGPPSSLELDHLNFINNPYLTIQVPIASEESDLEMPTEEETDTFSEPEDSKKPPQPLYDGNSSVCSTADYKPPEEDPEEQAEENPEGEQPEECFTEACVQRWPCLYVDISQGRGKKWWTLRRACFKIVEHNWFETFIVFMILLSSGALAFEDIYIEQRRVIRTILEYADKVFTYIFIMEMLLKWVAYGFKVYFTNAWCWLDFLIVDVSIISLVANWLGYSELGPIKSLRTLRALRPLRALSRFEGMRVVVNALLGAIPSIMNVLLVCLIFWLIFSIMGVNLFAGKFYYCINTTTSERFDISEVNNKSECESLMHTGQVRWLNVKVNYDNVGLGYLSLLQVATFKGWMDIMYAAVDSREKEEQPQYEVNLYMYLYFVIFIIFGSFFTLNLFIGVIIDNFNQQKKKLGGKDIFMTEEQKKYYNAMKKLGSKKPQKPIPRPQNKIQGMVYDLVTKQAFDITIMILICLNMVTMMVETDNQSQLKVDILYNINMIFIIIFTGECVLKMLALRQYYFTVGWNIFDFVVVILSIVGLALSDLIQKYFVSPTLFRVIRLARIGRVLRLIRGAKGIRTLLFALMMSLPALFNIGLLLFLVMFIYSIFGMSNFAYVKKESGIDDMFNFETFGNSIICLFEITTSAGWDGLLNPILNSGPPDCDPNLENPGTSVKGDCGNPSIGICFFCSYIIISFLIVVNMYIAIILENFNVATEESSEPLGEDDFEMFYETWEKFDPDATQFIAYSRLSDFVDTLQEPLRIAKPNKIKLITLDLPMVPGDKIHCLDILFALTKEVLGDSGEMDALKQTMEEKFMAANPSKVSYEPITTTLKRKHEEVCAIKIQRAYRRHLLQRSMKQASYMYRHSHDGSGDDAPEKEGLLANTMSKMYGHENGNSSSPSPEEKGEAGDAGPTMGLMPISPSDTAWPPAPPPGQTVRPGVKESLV

**Q.** CC[C@H](C)[C@H](NC(=O)[C@H](Cc1ccc(O)cc1)NC(=O)[C@H](CCCCN)NC(=O)[C@H](CCCNC(=N)N)NC(=O)[C@@H]1CSSC[C@@H]2NC(=O)[C@H](C)NC(=O)[C@H](CCCNC(=N)N)NC(=O)[C@H](CCCCN)NC(=O)[C@H](CO)NC(=O)[C@H](CC(=O)O)NC(=O)[C@@H]3CSSC[C@H](NC(=O)[C@H](CCC(=O)O)NC(=O)[C@H](CC(C)C)NC(=O)CNC(=O)[C@H](CCC(=O)O)NC(=O)[C@H](CSSC[C@H](NC(=O)[C@@H](N)Cc4ccc(O)cc4)C(=O)N[C@@H](CCC(N)=O)C(=O)N[C@@H](CCCCN)C(=O)N[C@@H](CCCCN)C(=O)N[C@@H](CCSC)C(=O)N[C@@H](Cc4c[nH]c5ccccc45)C(=O)N[C@@H]([C@@H](C)O)C(=O)N3)NC2=O)C(=O)N[C@@H](CCCCN)C(=O)N[C@@H](CC(C)C)C(=O)N[C@@H](Cc2c[nH]c3ccccc23)C(=O)N1)C(N)=O [compound 200] was tested. Which IC50 [1] did it give?
**A.** The IC50 was greater than 5 µM.

**Q.** What about the IC50 [2] of the same compound?
**A.** Its IC50 is greater than 5 µM.

**Q.** And the IC50 [3]?
**A.** Its IC50 is greater than 5 µM.

**Q.** And the IC50 [4]?
**A.** The IC50 was greater than 5 µM.

**Q.** Which results are given for CC[C@H](C)[C@H](NC(=O)[C@H](Cc1ccc(O)cc1)NC(=O)[C@H](CCCCN)NC(=O)[C@H](CCCNC(=N)N)NC(=O)[C@@H]1CSSC[C@@H]2NC(=O)[C@H](C)NC(=O)[C@H](CCCNC(=N)N)NC(=O)[C@H](CCCCN)NC(=O)[C@H](CO)NC(=O)[C@H](CC(=O)O)NC(=O)[C@@H]3CSSC[C@H](NC(=O)[C@H](CCC(=O)O)NC(=O)[C@H](CC(C)C)NC(=O)CNC(=O)[C@H](CCC(=O)O)NC(=O)[C@H](CSSC[C@H](NC(=O)[C@@H](N)Cc4ccc(O)cc4)C(=O)N[C@@H](CCC(N)=O)C(=O)N[C@@H](CCCCN)C(=O)N[C@@H](CC(N)=O)C(=O)N[C@@H](CCSC)C(=O)N[C@@H](Cc4c[nH]c5ccccc45)C(=O)N[C@@H]([C@@H](C)O)C(=O)N3)NC2=O)C(=O)N[C@@H](CCCCN)C(=O)N[C@@H](CC(C)C)C(=O)N[C@@H](Cc2c[nH]c3ccccc23)C(=O)N1)C(N)=O [compound 201]?
**A.** IC50 [1]: > 5 µM; IC50 [2]: > 5 µM; IC50 [3]: > 5 µM; IC50 [4]: 4.2 µM and > 5 µM

**Q.** For CC[C@H](C)[C@H](NC(=O)[C@H](Cc1ccc(O)cc1)NC(=O)[C@H](CCCCN)NC(=O)[C@H](CCCNC(=N)N)NC(=O)[C@@H]1CSSC[C@@H]2NC(=O)[C@H](C)NC(=O)[C@H](CCCNC(=N)N)NC(=O)[C@H](CCCCN)NC(=O)[C@H](CO)NC(=O)[C@H](CC(=O)O)NC(=O)[C@@H]3CSSC[C@H](NC(=O)[C@H](CCC(=O)O)NC(=O)[C@H](CC(C)C)NC(=O)CNC(=O)[C@H](CCC(=O)O)NC(=O)[C@H](CSSC[C@H](NC(=O)[C@@H](N)Cc4ccc(O)cc4)C(=O)N[C@@H](CCC(N)=O)C(=O)N[C@@H](CCCCN)C(=O)N[C@@H](CCC(=O)O)C(=O)N[C@@H](CCSC)C(=O)N[C@@H](Cc4c[nH]c5ccccc45)C(=O)N[C@@H]([C@@H](C)O)C(=O)N3)NC2=O)C(=O)N[C@@H](CCCCN)C(=O)N[C@@H](CC(C)C)C(=O)N[C@@H](Cc2c[nH]c3ccccc23)C(=O)N1)C(N)=O [compound 203], which IC50 [1] is on record?
**A.** The IC50 was greater than 7 µM.

**Q.** And the IC50 [2]?
**A.** Its IC50 is greater than 7 µM.

**Q.** And the IC50 [3]?
**A.** Its IC50 is greater than 7 µM.

**Q.** What about the IC50 [4] of the same compound?
**A.** The IC50 was greater than 7 µM.

**Q.** With CCC[C@@H]1NC(=O)[C@H](CCSC)NC(=O)[C@H](Cc2c[nH]c3ccccc23)NC(=O)[C@H](CCCCN)NC(=O)[C@H](CCC(N)=O)NC(=O)[C@@H](NC(=O)[C@@H](N)Cc2ccc(O)cc2)CSSC[C@@H]2NC(=O)[C@@H]3CSSC[C@@H](C(=O)N[C@@H](CCCNC(=N)N)C(=O)N[C@@H](CCCCN)C(=O)N[C@@H](Cc4ccc(O)cc4)C(=O)N[C@H](C(N)=O)[C@@H](C)CC)NC(=O)[C@H](Cc4c[nH]c5ccccc45)NC(=O)[C@H](CC(C)C)NC(=O)[C@H](CCCCN)NC(=O)[C@H](CSSC[C@H](NC(=O)[C@H]([C@@H](C)O)NC1=O)C(=O)N[C@@H](CC(=O)O)C(=O)N[C@@H](CO)C(=O)N[C@@H](CCCCN)C(=O)N[C@@H](CCCNC(=N)N)C(=O)N[C@@H](C)C(=O)N3)NC(=O)[C@H](CCC(=O)O)NC(=O)[C@H](CC(C)C)NC(=O)CNC(=O)[C@H](CCC(=O)O)NC2=O [compound 212] as the compound, how does the IC50 [1] read?
**A.** The IC50 was greater than 7 µM.

**Q.** And the IC50 [2]?
**A.** The IC50 was greater than 7 µM.

**Q.** What about the IC50 [3] of the same compound?
**A.** The IC50 was greater than 7 µM.

**Q.** And the IC50 [4]?
**A.** Its IC50 is 4.5 µM.

**Q.** Which IC50 [1] does the source give for CC[C@H](C)[C@H](NC(=O)[C@H](Cc1ccc(O)cc1)NC(=O)[C@H](CCCCN)NC(=O)[C@H](CCCNC(=N)N)NC(=O)[C@@H]1CSSC[C@@H]2NC(=O)[C@H](C)NC(=O)[C@H](CCCNC(=N)N)NC(=O)[C@H](CCCCN)NC(=O)[C@H](CO)NC(=O)[C@H](CC(=O)O)NC(=O)[C@@H]3CSSC[C@H](NC(=O)[C@H](CCC(=O)O)NC(=O)[C@H](CC(C)C)NC(=O)CNC(=O)[C@H](CCC(=O)O)NC(=O)[C@H](CSSC[C@H](NC(=O)[C@@H](N)Cc4ccc(O)cc4)C(=O)N[C@@H](CCC(N)=O)C(=O)N[C@@H](CCCCN)C(=O)N[C@@H](Cc4c[nH]c5ccccc45)C(=O)N[C@@H](CCSC)C(=O)N[C@@H](CCCNC(N)=O)C(=O)N[C@@H]([C@@H](C)O)C(=O)N3)NC2=O)C(=O)N[C@@H](CCCCN)C(=O)N[C@@H](CC(C)C)C(=O)N[C@@H](Cc2c[nH]c3ccccc23)C(=O)N1)C(N)=O [compound 213] here?
**A.** Its IC50 is greater than 7 µM.

**Q.** What about the IC50 [2] of the same compound?
**A.** The IC50 was greater than 7 µM.

**Q.** What about the IC50 [3] of the same compound?
**A.** Its IC50 is greater than 7 µM.

**Q.** What about the IC50 [4] of the same compound?
**A.** Its IC50 is 5.8 µM.

**Q.** CC[C@H](C)[C@H](NC(=O)[C@H](Cc1ccc(O)cc1)NC(=O)[C@H](CCCCN)NC(=O)[C@H](CCCNC(=N)N)NC(=O)[C@@H]1CSSC[C@@H]2NC(=O)[C@H](C)NC(=O)[C@H](CCCNC(=N)N)NC(=O)[C@H](CCCCN)NC(=O)[C@H](CO)NC(=O)[C@H](CC(=O)O)NC(=O)[C@@H]3CSSC[C@H](NC(=O)[C@H](CCC(=O)O)NC(=O)[C@H](CC(C)C)NC(=O)CNC(=O)[C@H](CCC(=O)O)NC(=O)[C@H](CSSC[C@H](NC(=O)[C@@H](N)Cc4ccc(O)cc4)C(=O)N[C@@H](CCC(N)=O)C(=O)N[C@@H](CCCCN)C(=O)N[C@@H](Cc4c[nH]c5ccccc45)C(=O)N[C@@H](CCSC)C(=O)N[C@@H](CCCCN)C(=O)N[C@@H]([C@@H](C)O)C(=O)N3)NC2=O)C(=O)N[C@@H](CCCCN)C(=O)N[C@@H](CC(C)C)C(=O)N[C@@H](Cc2c[nH]c3ccccc23)C(=O)N1)C(N)=O [compound 214] was tested. Which IC50 [1] did it give?
**A.** Its IC50 is greater than 7 µM.

**Q.** What about the IC50 [2] of the same compound?
**A.** The IC50 was greater than 7 µM.

**Q.** What about the IC50 [3] of the same compound?
**A.** Its IC50 is greater than 7 µM.

**Q.** And the IC50 [4]?
**A.** The IC50 was 2.7 µM.

**Q.** What does the source list for CC[C@H](C)[C@H](NC(=O)[C@H](Cc1ccc(O)cc1)NC(=O)[C@H](CCCCN)NC(=O)[C@H](CCCNC(=N)N)NC(=O)[C@@H]1CSSC[C@@H]2NC(=O)[C@H](C)NC(=O)[C@H](CCCNC(=N)N)NC(=O)[C@H](CCCCN)NC(=O)[C@H](CO)NC(=O)[C@H](CC(=O)O)NC(=O)[C@@H]3CSSC[C@H](NC(=O)[C@H](CCC(=O)O)NC(=O)[C@H](CC(C)C)NC(=O)CNC(=O)[C@H](CCC(=O)O)NC(=O)[C@H](CSSC[C@H](NC(=O)[C@@H](N)Cc4ccc(O)cc4)C(=O)N[C@@H](CCC(N)=O)C(=O)N[C@@H](CCCCN)C(=O)N[C@@H](Cc4c[nH]c5ccccc45)C(=O)N[C@@H](CCSC)C(=O)N[C@@H](CC(N)=O)C(=O)N[C@@H]([C@@H](C)O)C(=O)N3)NC2=O)C(=O)N[C@@H](CCCCN)C(=O)N[C@@H](CC(C)C)C(=O)N[C@@H](Cc2c[nH]c3ccccc23)C(=O)N1)C(N)=O [compound 215]?
**A.** IC50 [1]: > 7 µM; IC50 [2]: 6.1 µM; Nav1.4/Nav1.7 ([2]; ratio of IonWorks Quattro IC50 values): 1; IC50 [3]: > 7 µM; IC50 [4]: 5 µM
